Results from PubChem BioAssay (NCI).
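Protocol summary: plate cells (96-well), add compound at 5 concentrations, incubate 48 h, interpolate endpoints linearly. TGI is the concentration that stops growth completely.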

Tests used:
Test in all cases: DTP human tumour cell line panel, 48 h
A549 NSCLC = system: A549 NSCLC
ACHN renal = system: ACHN renal
HCC-2998 colon = system: HCC-2998 colon
IGROV1 ovarian = system: IGROV1 ovarian
KM12 colon = system: KM12 colon
LOX IMVI melanoma = system: LOX IMVI melanoma
M14 melanoma = system: M14 melanoma
MDA-MB-435 = system: MDA-MB-435
MDA-N = system: MDA-N
NCI/ADR-RES ovarian = system: NCI/ADR-RES ovarian
OVCAR-8 ovarian = system: OVCAR-8 ovarian
PC-3 prostate = system: PC-3 prostate
RXF 393 renal = system: RXF 393 renal
SK-MEL-5 melanoma = system: SK-MEL-5 melanoma
SN12C renal = system: SN12C renal
SNB-75 CNS = system: SNB-75 CNS
T-47D breast = system: T-47D breast
UACC-257 melanoma = system: UACC-257 melanoma

| SMILES | TGI (A549 NSCLC) [µM] | TGI (ACHN renal) [µM] | TGI (HCC-2998 colon) [µM] | TGI (IGROV1 ovarian) [µM] | TGI (KM12 colon) [µM] | TGI (LOX IMVI melanoma) [µM] | TGI (M14 melanoma) [µM] | TGI (MDA-MB-435) [µM] | TGI (MDA-N) [µM] | TGI (NCI/ADR-RES ovarian) [µM] | TGI (OVCAR-8 ovarian) [µM] | TGI (PC-3 prostate) [µM] | TGI (RXF 393 renal) [µM] | TGI (SK-MEL-5 melanoma) [µM] | TGI (SN12C renal) [µM] | TGI (SNB-75 CNS) [µM] | TGI (T-47D breast) [µM] | TGI (UACC-257 melanoma) [µM] |
| --- | --- | --- | --- | --- | --- | --- | --- | --- | --- | --- | --- | --- | --- | --- | --- | --- | --- | --- |
| NC(=O)SCCC(N)C(=O)O (configuration not stated) | > 100 | > 100 | > 100 | > 100 | > 100 | > 100 | > 100 | > 100 | > 100 | > 100 | > 100 | > 100 | > 100 | > 100 | > 100 | > 100 | > 100 | > 100 |
| CN(C)CCNC(=O)Cn1cnc2cccc([N+](=O)[O-])c2c1=O | > 100 | > 100 | > 100 | > 100 | > 100 | > 100 | > 100 | > 100 | > 100 | > 100 |  | > 100 | > 100 | > 100 | > 100 |  | > 100 | > 100 |
| CC(C)(C)OC(=O)NCCNCCNc1ccccc1 | > 100 | > 100 | > 100 | > 100 | > 100 | > 100 | > 100 | > 100 | > 100 | > 100 | > 100 | > 100 | > 100 | > 100 | > 100 | > 100 | > 100 | > 100 |
| O=C1c2c(ccc3c2CCC3)CC12Cc1ccccc1C2 | > 100 | > 100 | 89 | > 100 | 51.4 | 31 | > 100 | > 100 | 90.5 | > 100 | > 100 | > 100 | 40.4 | 24.3 | > 100 | 91.1 | > 100 | 57.4 |
| O=C(O)CCC(N=NNc1ccc(-c2nc3ccccc3[nH]2)cc1)C(=O)O (configuration not stated) | > 100 | > 100 |  | > 100 | > 100 | > 100 | > 100 | > 100 | > 100 | > 100 | > 100 | > 100 | > 100 | > 100 | > 100 | > 100 | > 100 | > 100 |
| CCN(CC)C(=S)SC(C(=O)Nc1nnc(-c2ccccc2)o1)c1ccccc1 (configuration not stated) | 35.7 | 57.7 |  | > 100 | 62.7 | 17 | 42 | 34.8 | 36.5 | 41.1 | > 100 | 66.8 | 39.8 | 28.8 | 32.3 | > 100 | > 100 | 74.5 |
| CCNC12CCC(C1)C(C)(C)C2=O (configuration not stated) | > 100 | > 100 | > 100 | > 100 | > 100 | > 100 | > 100 | > 100 | > 100 | > 100 | > 100 | > 100 | > 100 | > 100 | > 100 | > 100 | > 100 | > 100 |
| CCOC(=O)c1c(C)n([O-])c2cc(Cl)c(Cl)cc2[n+]1=O | 35.6 | > 100 | 29.1 | 24.1 | 27.5 | 38.4 | 43.9 | 55.1 | > 100 | 66.6 | 53 | > 100 | 50.3 | 36.5 | 51.9 |  | 60.1 | 44.5 |
| CCCCCCCCCCCCCCCCOP(=O)(O)OCC(NC(C)=O)C(=O)O (configuration not stated) | > 100 | > 100 | > 100 | 62.2 |  | > 100 | > 100 | > 100 | > 100 | > 100 | > 100 | 34.7 | 48.3 | > 100 | > 100 | 98.2 | > 100 | > 100 |
| COc1ccc(C2=C(N)c3ncccc3C2=O)cc1 |  | > 10 | > 100 | > 100 | > 100 | > 100 | > 100 | > 100 | > 100 | > 100 | > 100 | > 100 | > 100 |  | > 100 | > 100 | > 100 | > 10 |
